Columns and labels:
[1] = target: T1, Catechol O-methyltransferase (Rattus norvegicus) (UniProt P22734); assay: Percent inhibition of Catechol O-methyltransferase activity in rat brain at dose of 30 mg/kg determined at 6 h after its administration; type: organism-based; parameters: dose 30 mg/kg
T1 sequence (whole entry): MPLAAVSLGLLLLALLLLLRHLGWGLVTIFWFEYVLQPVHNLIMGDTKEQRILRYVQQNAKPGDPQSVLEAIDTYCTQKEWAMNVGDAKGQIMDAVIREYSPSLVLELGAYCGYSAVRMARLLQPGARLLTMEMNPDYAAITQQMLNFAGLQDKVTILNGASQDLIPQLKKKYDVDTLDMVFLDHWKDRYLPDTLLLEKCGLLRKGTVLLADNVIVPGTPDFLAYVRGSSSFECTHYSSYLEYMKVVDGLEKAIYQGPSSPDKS

[2] = target: T1, Catechol O-methyltransferase (Rattus norvegicus); assay: Percent inhibition of Catechol O-methyltransferase activity in rat liver at dose of 30 mg/kg determined at 6 hr after its administration; type: organism-based; parameters: dose 30 mg/kg

Row | inhibition [1] [%] | inhibition [2] [%] | SMILES
1 | 7 | 13 | O=C(c1cc(O)c(O)c([N+](=O)[O-])c1)C(c1ccccc1)c1ccccc1
2 | 10 | 70 | O=C(Cc1cccc2ccccc12)c1cc(O)c(O)c([N+](=O)[O-])c1
3 | 34 | 39 | O=C(Cc1ccccc1C(=O)O)c1cc(O)c(O)c([N+](=O)[O-])c1
4 | 19 | 14 | CC(=O)Oc1cc(C(=O)C2(c3ccccc3)CCCCC2)cc([N+](=O)[O-])c1OC(C)=O
5 | 10 | 0 | O=[N+]([O-])c1cc(CCc2ccccc2)cc(O)c1O
6 | 23 | 19 | CC(=O)Oc1cc(C(=O)C(C)(C)c2ccccc2)cc([N+](=O)[O-])c1OC(C)=O
7 | 44 | 63 | CC(=O)Oc1cc(C(=O)C(Cc2ccccc2)c2ccccc2)cc([N+](=O)[O-])c1OC(C)=O (stereo not given)
8 | 20 | 28 | CC(=O)Oc1cc(C(=O)Cc2ccccc2[N+](=O)[O-])cc([N+](=O)[O-])c1OC(C)=O
9 | 20 | 48 | CC(=O)Oc1cc(C(=O)C(Br)c2ccccc2)cc([N+](=O)[O-])c1OC(C)=O (stereo not given)
10 | 0 | 49 | CC(=O)Oc1cc(C(=O)Cc2ccc([N+](=O)[O-])cc2)cc([N+](=O)[O-])c1OC(C)=O
11 | 44 | 42 | CC(=O)Oc1cc(C(=O)C(C)c2ccccc2)cc([N+](=O)[O-])c1OC(C)=O (stereo not given)
12 | 33 | 74 | Cc1ccccc1CC(=O)c1cc(O)c(O)c([N+](=O)[O-])c1
13 | 29 | 15 | O=c1oc(-c2cc(O)c(O)c([N+](=O)[O-])c2)cc2ccccc12
14 | 13 | 48 | O=[N+]([O-])c1cc(/C(Cc2ccccc2)=N\O)cc(O)c1O
15 | 17 | 83 | O=C(Cc1ccc2ccccc2c1)c1cc(O)c(O)c([N+](=O)[O-])c1
16 | 28 | 78 | O=C(Cc1ccc(-c2ccccc2)cc1)c1cc(O)c(O)c([N+](=O)[O-])c1
17 | 25 | 72 | COc1ccc(CC(=O)c2cc(OC(C)=O)c(OC(C)=O)c([N+](=O)[O-])c2)cc1
18 | 39 | 72 | O=C(CC1CCCCC1)c1cc(O)c(O)c([N+](=O)[O-])c1
19 | 23 | 83 | Cc1ccc(CC(=O)c2cc(O)c(O)c([N+](=O)[O-])c2)cc1
20 | 12 | 69 | O=C(Cc1ccc(Cl)cc1)c1cc(O)c(O)c([N+](=O)[O-])c1
